Results published in patent US20040038199A1, “Phenotyping assay and reagents therefor” (priority 2000, published 2004).
Where two headings read alike, the source gives them in different places.

What was measured:
Assay type in all cases: cell-based, HIV-1
[1] = test system: Virus 1 (recombinant generated from plasma of Subject 1 by FPH or RVA); assay: MTT-reduction cell viability drug susceptibility assay, recombinant Virus 1 (FPH or RVA); conditions: for fold resistance: Table 3A, relative to WT (HXB2); for fold higher susceptibility when generated by RVA than when generated by FPH: virus 1
Description: (§1) As previously discussed, recombinant virus produced by the method of the present invention may be used in drug sensitivity assays. A suitable drug sensitivity assay is described in Pauwels et al. (1988) and is an MTT-reduction colorimetric cell viability assay. Cells infected with the virus are plated into the wells of tissue culture plates and incubated with the anti-viral drug to be tested. After incubation, MTT (3-(4,5-dimethylthiazol-2-yl)-2,5diphenyltetrazolium bromide) is added to the cell culture. Only live cells produce the blue formazan product after incubation with MTT. This product is detectable by reading the optical absorbance at 540-590 nm, so the absorbance reading gives a measure of the cells which have been protected from the virus by the anti-viral drug. Viral drug resistance results in a decrease in surviving cells and a decrease in absorbance at 540-590 nm.
(§2) In this experiment, plasma from three HIV-1 infected subjects experiencing virological failure on PI-containing therapy regimens was used as the basis for the FPH to generate recombinant virus. […] Virus from Subject 2 had L10I, M46I, I50V and a Lp1′F mutation at the p1/p6 protease cleavage site, all of which are mutations typical of high level APV resistance.
(§3) The LTR was added to the nested products by PMR prior to transfection. The PMR reactions successfully added the LTR sequences to the nested products (FIG. 9). The first round RT-PCR reactions were also used as templates to generate products for RVA by cotransfection with pHXBΔCSPRTC. Triplicate PCR products were cotransfected into MT4 cells with the linearised plasmid pHXBTOPO1, in the case of the PMR products, and with linearised pHXBΔCSPRTC in for the RVA products. Viral cytopathic effect was observed and titratable virus was harvested in the supernatants. No virus was isolated from virus 2 using FPH and only one of the triplicate cultures from virus 3 yielded infectious virus. All of the RVA cultures produced virus.
(§4) In order to determine whether the extra sequences in the FPH recombinants contain determinants of susceptibility, the recombinant viruses were tested against several drugs. Drug susceptibility was determined by the 3-(4,5dimethylthiazol-2-yl)-2,5-diphenyltetrazolium bromide (MTT)-reduction calorimetric cell viability assay described previously (Pauwels et al. 1988; Robinson et al., 2000). Changes in susceptibility were defined as fold increase in IC50 relative to WT (HXB2). Nucleotide sequences were determined using ABI 3700 capillary sequencers and Big Dye terminators. […] Virus 1 also gave a 2.2-fold (Table 3A) or 4-fold (Table 3B) higher susceptibility to IDV and 2.9-fold (Table 3A) or 3.2-fold higher susceptibility to APV when generated by RVA.

[2] = test system: Virus 2 (recombinant generated from plasma of Subject 2 by RVA); assay: MTT-reduction cell viability drug susceptibility assay, recombinant Virus 2 (RVA); conditions: for resistance, fold higher than wild-type: Virus 2 obtained via the RVA
Description: as §1, §2, §3, §4

[3] = test system: Virus 3 (recombinant generated from plasma of Subject 3 by FPH or RVA); assay: MTT-reduction cell viability drug susceptibility assay, recombinant Virus 3 (FPH or RVA); conditions: for EC50: Human immunodeficiency virus 1, Table 3A; for fold resistance: Table 3A, relative to WT (HXB2); for difference in susceptibility between the two techniques (RVA vs FPH): virus 3
Description: as §1, §2, §3, §4

HXB2 = assay: MTT-reduction cell viability drug susceptibility assay, wild type HXB2 (Table 3A)
Description: as §1, §4

[4] = test system: Virus 3.1, 3.2, 3.3 (recombinants by FPH or RVA); assay: MTT-reduction cell viability drug susceptibility assay, viruses 3.1-3.3 (Table 3B); conditions: for fold resistance: Table 3B, relative to WT
Description: as §1, §3, §4

[5] = test system: Virus 4.1, 4.2, 4.3 (recombinants by RVA); assay: MTT-reduction cell viability drug susceptibility assay, viruses 4.1-4.3 (Table 3B); conditions: for EC50: Human immunodeficiency virus 1, Table 3B; for fold resistance: Table 3B, relative to WT
Description: as §1, §3, §4

[6] = test system: Virus 5.1 (FPH), 5.2 (RVA); assay: MTT-reduction cell viability drug susceptibility assay, viruses 5.1 and 5.2 (Table 3B); conditions: for EC50: Human immunodeficiency virus 1, Table 3B; for fold resistance: Table 3B, relative to WT
Description: as §1, §3, §4

[7] = test system: WT (HXB2) generated by FPH or RVA; assay: MTT-reduction cell viability drug susceptibility assay, WT (Table 3B); conditions: for EC50: Human immunodeficiency virus 1, HXB2, Table 3B; for fold resistance: Table 3B
Description: as §1, §4

**Q.** How did the EC50 ([1]; Human immunodeficiency virus 1, Table 3A, Virus 1, method RVA, read-out: Drug EC50) turn out when CC(C)CN(C[C@@H](O)[C@H](Cc1ccccc1)NC(=O)O[C@H]1CCOC1)S(=O)(=O)c1ccc(N)cc1 [APV, amprenavir] was run?
**A.** Its EC50 is 128 nM.

**Q.** What about the EC50 ([1]; Human immunodeficiency virus 1, read-out: Drug EC50, Table 3A, Virus 1, method FPH) of the same compound?
**A.** The EC50 was 366 nM.

**Q.** And the fold resistance ([1]; Virus 1, method FPH)?
**A.** Its fold resistance is “(5.4) fold”.

**Q.** And the fold resistance ([1]; Virus 1, method RVA)?
**A.** Its fold resistance is “(1.9) fold”.

**Q.** And the “fold higher susceptibility when generated by RVA than when generated by FPH” value ([1]; Table 3A experiment)?
**A.** The value was 2.9 fold.

**Q.** And the “fold higher susceptibility when generated by RVA than when generated by FPH” value ([1]; Table 3B experiment)?
**A.** Its value is 3.2 fold.

**Q.** What about the EC50 ([2]; Human immunodeficiency virus 1, Table 3A, Virus 2, method RVA) of the same compound?
**A.** The EC50 was 1070 nM.

**Q.** What about the fold resistance ([2]; Table 3A, Virus 2, method RVA, relative to WT (HXB2)) of the same compound?
**A.** Its fold resistance is “(16) fold”.

**Q.** What about the “resistance, fold higher than wild-type” value ([2]; Table 3B experiment) of the same compound?
**A.** Its value is over 21 fold.

**Q.** What about the “resistance, fold higher than wild-type” value ([2]; first printed value (Table 3A experiment)) of the same compound?
**A.** The value was 16 fold.

**Q.** What about the EC50 ([3]; Virus 3, method FPH) of the same compound?
**A.** Its EC50 is 718 nM.

**Q.** What about the EC50 ([3]; Virus 3, method RVA) of the same compound?
**A.** The EC50 was 396 nM.

**Q.** And the fold resistance ([3]; Virus 3, method FPH)?
**A.** Its fold resistance is “(11) fold”.

**Q.** And the fold resistance ([3]; Virus 3, method RVA)?
**A.** Its fold resistance is “(5.9) fold”.

**Q.** And the “difference in susceptibility between the two techniques (RVA vs FPH)” value ([3]; Table 3B experiment)?
**A.** Its value is 2.0 fold.

**Q.** What about the “difference in susceptibility between the two techniques (RVA vs FPH)” value ([3]; first of the two printed values (Table 3A experiment)) of the same compound?
**A.** Its value is 1.9 fold.

**Q.** What about the fold resistance (HXB2; HXB2 wild type (reference)) of the same compound?
**A.** Its fold resistance is “(1.0) fold”.

**Q.** What about the EC50 (HXB2; Human immunodeficiency virus 1, HXB2 wild type) of the same compound?
**A.** Its EC50 is 67.5 nM.

**Q.** What about the EC50 ([4]; Human immunodeficiency virus 1, Table 3B, Virus 3.1, method FPH, read-out: Drug EC50) of the same compound?
**A.** The EC50 was 865 nM.

**Q.** And the EC50 ([4]; Human immunodeficiency virus 1, Table 3B, Virus 3.2, method FPH, read-out: Drug EC50)?
**A.** Its EC50 is 691 nM.

**Q.** What about the EC50 ([4]; Human immunodeficiency virus 1, Table 3B, Virus 3.2, method RVA, read-out: Drug EC50) of the same compound?
**A.** Its EC50 is 245 nM.

**Q.** What about the EC50 ([4]; Human immunodeficiency virus 1, Table 3B, Virus 3.3, method FPH, read-out: Drug EC50) of the same compound?
**A.** The EC50 was 619 nM.

**Q.** What about the EC50 ([4]; Human immunodeficiency virus 1, read-out: Drug EC50, Table 3B, Virus 3.1, method RVA) of the same compound?
**A.** Its EC50 is 211 nM.

**Q.** What about the fold resistance ([4]; Virus 3.1, method FPH) of the same compound?
**A.** The fold resistance was “(7.7) fold”.

**Q.** And the fold resistance ([4]; Virus 3.1, method RVA)?
**A.** Its fold resistance is “(1.7) fold”.

**Q.** And the fold resistance ([4]; Virus 3.2, method FPH)?
**A.** Its fold resistance is “(6.1) fold”.

**Q.** What about the fold resistance ([4]; Virus 3.2, method RVA) of the same compound?
**A.** Its fold resistance is “(2.0) fold”.

**Q.** What about the fold resistance ([4]; Virus 3.3, method FPH) of the same compound?
**A.** Its fold resistance is “(5.5) fold”.

**Q.** And the EC50 ([5]; Virus 4.1, method RVA)?
**A.** Its EC50 is over 2500 nM.

**Q.** And the EC50 ([5]; Virus 4.2, method RVA)?
**A.** The EC50 was 2010 nM.

**Q.** And the EC50 ([5]; Virus 4.3, method RVA)?
**A.** Its EC50 is over 2500 nM.

**Q.** What about the fold resistance ([5]; Virus 4.1, method RVA) of the same compound?
**A.** Its fold resistance is “(>21) fold”.

**Q.** And the fold resistance ([5]; Virus 4.2, method RVA)?
**A.** Its fold resistance is “(17) fold”.

**Q.** And the fold resistance ([5]; Virus 4.3, method RVA)?
**A.** The fold resistance was “(>21) fold”.

**Q.** And the EC50 ([6]; Virus 5.1, method FPH)?
**A.** The EC50 was 1570 nM.

**Q.** What about the EC50 ([6]; Virus 5.2, method RVA) of the same compound?
**A.** Its EC50 is 802 nM.

**Q.** And the fold resistance ([6]; Virus 5.1, method FPH)?
**A.** The fold resistance was “(14) fold”.

**Q.** What about the fold resistance ([6]; Virus 5.2, method RVA) of the same compound?
**A.** The fold resistance was “(6.6) fold”.

**Q.** What about the EC50 ([7]; method FPH) of the same compound?
**A.** Its EC50 is 113 nM.

**Q.** And the EC50 ([7]; method RVA)?
**A.** Its EC50 is 121 nM.

**Q.** And the fold resistance ([7]; method FPH (reference))?
**A.** The fold resistance was “(1.0) fold”.

**Q.** What about the fold resistance ([7]; method RVA (reference)) of the same compound?
**A.** The fold resistance was “(1.0) fold”.
